Read-outs that look alike come from different tables or passages of the source.
Key:
[1] = Neutral fraction at pH 7.4 calculated from pKa; assay type: physicochemical; conditions: neutral fraction at perfusion fluid pH 7.40, calculated from pKa
[2] = rat
[3] = rat, in vivo, pH 7.4
[4] = for Brain Kin: calculated at brain blood flow […] and rat serum fu; for Extraction (unbound) / Brain vascular extraction (total): calculated at brain blood flow […]; for Extraction (unbound): free drug; for Brain vascular extraction (total): with rat serum fu; for Maximal flow—90% extraction, PcS/2.3: pH 7.4
[5] = ref Hansch et al. [123], Avdeef [46] or other sources, cited from earlier work; for Log Poct: octanol partition coefficient
[6] = rat in vivo measurements; cited from earlier work
[7] = rat in vivo measurements; cited from earlier work; remark: listed apart in the source
[8] = In situ rat brain perfusion (brain uptake Kin, extraction E, BBB PS); conditions: for Log Pc: Pc in cm/s; for Log Po: Po in cm/s; for Log PoS: PoS in mL/s/g; for Pc / Po: S assumed 100 cm^2/g; for PcS: cerebral cortex, S = physiological saline, AB = artificial blood
[9] = intrinsic PS of neutral solute, PoS = PcS/fn, flow 0.1–[…]

SMILES	fn (%) [1] [%]	half-life ([2]; brain) [min]	Log Pc [3]	Log PoS [3]	Pc [3] [×10⁻⁶ cm/s]	PcS [3] [mL/s/g]	PoS [3] [mL/s/g]	Log Po [3]	Po [3] [cm/s]	Brain Kin [4] [mL/s/g]	Extraction (unbound) [4] [%]	Brain vascular extraction (total) [4] [%]	Log Poct [5]	Log Doct pH=7.4 [5]	fu,.p [6]	Brain Vu,br [7] [mL/g]	further results
OCCCCCCO [1,6-Hexanediol]	100	0.72	−3.42	−1.42	379	0.038	0.0379	−3.42	0.000379	0.0182	96.3	75.9	0.83	0.83	0.9	1.27	
Cc1c(N(C)C)c(=O)n(-c2ccccc2)n1C [Aminopyrine]	99.0	0.76								0.0201	89.8	83.9			0.80	1.67	
Cn1c(=O)c2c(ncn2C)n(C)c1=O [Caffeine]	100	0.94								0.0152	64.7	63.2				1.28	
OC[C@@H](O)[C@@H](O)CO [Erythritol]	100	160	−6.49	−4.49	0.324	3.2e-05	3.24e-05	−6.49	3.24e-07	9.27e-05	0.15	0.15	−2.29	−2.29	1.00	0.50	
CNCCC(Oc1ccc(C(F)(F)F)cc1)c1ccccc1 (stereo not drawn) [Fluoxetine]	0.27	15.8								0.0105	100	21.3	4.50		0.028	250	
CC(C(=O)O)c1ccc(-c2ccccc2)c(F)c1 (stereo not drawn) [Flurbiprofen]	0.06	3.9	−3.64	1.58	230	0.023	38.2	−0.42	0.38	0.000144	61.6	0.60	3.99	0.91	6.3E−03	7.76	
OCC(O)CO [Glycerol]	100	145	−6.08	−4.08	0.829	8.3e-05	8.29e-05	−6.08	8.29e-07	1.7e-06	0.34	0.34	−1.76	−1.76	1.00	1.04	
COc1ccc2c(c1)c(CC(=O)O)c(C)n2C(=O)c1ccc(Cl)cc1 [Indomethacin]	0.05	19.6	−4.12		76.6	0.0077		−0.84	0.15	4.37e-05	27.3	0.18	3.51	0.68	5.7E−03	13.0	
Cc1c(I)c(=O)n(-c2ccccc2)n1C [Iodoantipyrine]	100	0.5	−2.81	−0.81	1560	0.16	0.16	−2.81	0.00156	0.0231	99.8	96.1	1.27	1.27	0.50	2	BBB PcS [3]: 0.156 mL/s/g; Percentage printed beside the uptake curves (measure not given) [3]: 79%; Peak flow rate for 90% E ([4]; protein-free physiologic saline pH 7.4): 4.1 mL/min/g; Maximal flow—90% extraction, PcS/2.3 ([4]; protein-free saline): 0.068 mL/s/g
O=C1Nc2ccc(Cl)cc2C(c2ccccc2Cl)=NC1O (stereo not drawn) [Lorazepam]	100														0.16	15.87	half-life [2]: 1.39 min; Maximal flow—90% extraction, PcS/2.3 [4]: 0.13 mL/s/g; Log Pc [8]: −2.52; Log Po [8]: −2.52; Log PoS [8]: −0.52; Pc [8]: 3000 ×10⁻⁶ cm/s; Po [8]: 3000 ×10⁻⁶ cm/s; PcS ([8]; flow 0.1–[…]): 0.30 mL/s/g; PoS [8, 9]: 0.30 mL/s/g
OC[C@@H](O)[C@@H](O)[C@H](O)[C@H](O)CO [Mannitol]	100	109	−7.06	−5.06	0.088	8.8e-06	8.8e-06	−7.06	8.8e-08	8.8e-06	3.67E-04	3.67E-04	−3.10	−3.10	1.00	0.08	
CCCCNS(=O)(=O)c1ccccc1 [N-butyl-benzene sulfonamide]	100												2.20	2.20	0.30	10	Maximal flow—90% extraction, PcS/2.3 [4]: 0.17 mL/s/g; Log Pc [8]: −2.42; Log Po [8]: −2.42; Log PoS [8]: −0.42; Pc [8]: 3800 ×10⁻⁶ cm/s; Po [8]: 3800 ×10⁻⁶ cm/s; PoS ([8]; brain vascular intrinsic PoS): 0.38 mL/s/g; PcS ([8]; flow 0.1–[…]): 0.38 mL/s/g; PoS [8, 9]: 0.38 mL/s/g
Fc1ccc([C@@H]2CCNC[C@H]2COc2ccc3c(c2)OCO3)cc1 [Paroxetine]	0.32	83	−2.91	1.59	1230	0.12	39.0	−0.41	0.39	0.00164	99.4	7.4	3.50	1.00	0.015	852.0	BBB PcS [3]: 0.12 ± 0.02 mL/s/g
O=C1NC(=O)C(c2ccccc2)(c2ccccc2)N1 [Phenytoin]	88.4	6.02	−3.58	−1.53	263	0.026	0.0298	−3.53	0.000298	0.00364	66.6	15.2	2.24	2.17	0.15	12.7	
CC(=O)[C@H]1CC[C@H]2[C@@H]3CCC4=CC(=O)CC[C@]4(C)[C@H]3CC[C@]12C [Progesterone]	100	0.42											3.48	3.48	0.03	28.6	
CC(C)NCC(O)COc1cccc2ccccc12 (stereo not drawn) [Propranolol]	0.74	3.93								0.00806	98.3	30.5			0.09	27.8	
OC[C@H]1O[C@H](OC[C@H]2O[C@H](O[C@]3(CO)O[C@H](CO)[C@@H](O)[C@@H]3O)[C@H](O)[C@@H](O)[C@@H]2O)[C@H](O)[C@@H](O)[C@H]1O [Raffinose]	100	405	−8.02	−6.02	0.0095	9.5e-07	9.5e-07	−8.02	9.5e-09	9.5e-07	3.96E-05	3.96E-05	−3.89	−3.89	1.00	0.03	
OC[C@H]1O[C@@](CO)(O[C@H]2O[C@H](CO)[C@@H](O)[C@H](O)[C@H]2O)[C@@H](O)[C@@H]1O [Sucrose]	100	120									2.00E-04	2.00E-04	−3.57	−3.57	1.00	0.05	
